# Reference: patent US9095541B2, “Brain tumor targeting peptides and methods” (Arch Cancer Therapeutics, Inc., priority 2009, dated 2015)
# Peptide text beside a SMILES is read from it.
# How the values were obtained:
# U87R xenografts = experiment: In vivo phage homing, U87R xenografts, anti-M13 immunohistochemistry; set-up: species or system SCID mice; details: H10 phage perfused in mice carrying U87R tumors; signal within tumor mass or peritumoral; method uses mannitol pretreatment
# Protocol: FIG. 6A illustrates the in vivo homing capability of H10. Invasive U87R or non-invasive U87T cells were grown in the right brain hemisphere of SCID mice. Once tumors were established, mice were anaesthetized and perfused with H10 phage for 10 minutes. Unbound phage was flushed from the system with PBS. Brains were cryosectioned and immunohistochemically stained for M13 phage or human nuclear antigen (hNA).
# The ability of the selected phage or their corresponding peptides was examined for their ability to ‘home’ to their respective U87R or BTIC glioma cell targets in vivo, according to their ability to detect glioma cells in an orthotopic xenograft model. In the case of H10, SCID mice carrying U87R or U87T xenografts were injected with the test phage for ten minutes, which was subsequently perfused with PBS to remove any unbound particles.
# 3×10^4 U87T cells, 3×10^5 U87R cells or 5×10^4 BTICs were injected in a 3 μL volume into one brain hemisphere of a SCID mouse and allowed to grow for 4, 6 or 12 weeks respectively. […]
# Serial sections were fixed with cold acetone, and rehydrated through an ethanol gradient. […] Avidin-biotin peroxidase complexes were then formed using the VECTASTAIN Elite ABC kit (Vector Laboratories) and detected by addition of […] […]
# [1] = Water solubility of peptide; format: physicochemical; details: three N-terminal residues (KKG) added
# Text: In one aspect, the invention includes a peptide composition for targeting either (i) a highly invasive glioma cells (HIGC) subtype of human GBM cells, e.g., the U87R subtype of U87GM cells, or (ii) a brain tumor initiating cell (BTIC) subtype of human GBM cells, as characterized above. The peptide in the composition is 12-20 amino acid residues in length and contains one of the sequences identified as SEQ ID NOS-1-17, or a sequence that is at least 90% homologous with the given sequence. That is, the peptide has the same sequence as one of SEQ ID NOS: 1-17, or a sequence that differs from the given sequence by at most one amino acid residue. The peptide may contain only the given sequence of amino acids, or may contain additional N- and/or C-terminal residues up to a total of 20 residues. Thus, for example, the peptide corresponding to SEQ ID NO: 7, […] (H10), may have this exact sequence, the same sequence but with a single amino acid substitution, addition or deletion at any of the 12 residue positions, or a peptide having a total of up to eight additional residues at one or both of the N- or C-terminals.
# p75^NTR in U87R cells = experiment: Sucrose/iodixanol density gradient fractionation with Western blot for p75NTR; format: cell-based, human; details: U87R cells on collagen, treated 2 hours, 10-40% sucrose/iodixanol gradient
# Text: White arrows indicate higher molecular weight p75^NTR-containing complexes. Lines underneath the figure indicate the fractions in which common organelles are generally found;
# The p75^NTR can be detected differentially in lipid rafts isolated with specific detergents, and must be proteolytically processed to trigger cell migration in glioma cells. Thus, it is probable that p75^NTR is also cleaved within a lipid raft after endocytosis. To determine if H10 may be having an impact on endosomally located p75^NTR, cells were hypertonically lysed (to keep vesicles and organelles at least partially intact) and separated on a 10-40% sucrose/iodixanol gradient from which fractions were individually collected.
# Cells were scraped into 1 mL of 0.25M sucrose, 140 mM NaCl, 1 mM EDTA, 20 mM Tris-HCl, pH 8.0, and dounce homogenized until cells were no longer visible by microscopy. Debris was pelleted for 5 min, 800×g and the supernatant was loaded on top of a 10 mL continuous 10-40% gradient, prepared by the dilution of OptiPrep (Sigma, 60% iodixanol) with 0.25M sucrose, 140 mM NaCl, 3 mM EDTA, 60 mM Tris-HCl, pH8.0. Gradients were spun in a swinging bucket rotor at 48000×g for 18 hrs and 0.5 mL fractions were collected. Total protein was precipitated from each fraction by the addition of 2 volumes of −20° C. […]
# [2] = test system: transferrin or its receptor (markers of clathrin-coated vesicles); experiment: FITC-transferrin uptake and transferrin receptor gradient fractionation; format: cell-based, human; details: U87p75 and U87R cells, 2 hours
# Protocol: FIG. 9A are confocal images of p75^NTR transfected glioma cells (U87p75) imaged for uptake of FITC-transferrin.
# Cells were lysed, fractioned using an iodixanol gradient, and Western Blot analysis for the transferrin receptor was performed;
# Cells were scraped into 1 mL of 0.25M sucrose, 140 mM NaCl, 1 mM EDTA, 20 mM Tris-HCl, pH 8.0, and dounce homogenized until cells were no longer visible by microscopy. Debris was pelleted for 5 min, 800×g and the supernatant was loaded on top of a 10 mL continuous 10-40% gradient, prepared by the dilution of OptiPrep (Sigma, 60% iodixanol) with 0.25M sucrose, 140 mM NaCl, 3 mM EDTA, 60 mM Tris-HCl, pH8.0. Gradients were spun in a swinging bucket rotor at 48000×g for 18 hrs and 0.5 mL fractions were collected. Total protein was precipitated from each fraction by the addition of 2 volumes of −20° C. 20 mM DTT, 15% TCA, storage at −20° C. overnight, followed by centrifugation at 4° C. for 20 minutes. Pellets were resuspended in 20 μL 1M Tris and 20 μL 2× Laemmli buffer. The entire volume was loaded into a single well for SDS-PAGE resolution and western transfer.
# [3] = test system: lipid raft marker GM1 in U87R cells; format: cell-based, human; details: cholesterol oxidase, Alexa 555-cholera toxin B subunit, 120 minutes
# [4] = test system: U87MG cells transfected with p75^NTR; experiment: Transwell migration assay, p75NTR-transfected U87MG; format: cell-based, human; details: in vitro invasion assay
# Protocol: The membranes of 8 μm pore sized transwell inserts (Corning Costar) were coated with brain-like matrix (720 μL of 3 mg/mL collagen I (PureCol); 180 μL of 10×DMEM (Invitrogen); 9 uL of 1 mg/mL human plasma fibronectin (Sigma); 9 uL of 1 mg/mL chondroitin sulfate proteoglycans (Chemicon); 16 μL of 0.15 mg/mL laminin (Chemicon)) on both sides, allowed to dry, then plated with 5×10^4 cells in 100 μL media in the upper chamber and 500 μL media in the lower chamber. Inclusion of collagen was essential to see the inhibitory effect of H10 (FIG. S4). 3×10^10 pfu of test phage were added to the upper chambers containing the cells, which were incubated for 4 hours under normal culture conditions. At the end of the incubation, the media was aspirated and the cells were fixed and stained in 1% crystal violet in 95% ethanol for one minute. Transwells were rinsed in PBS, then cells on the upper membrane surfaces were removed with a cotton swab. Cells which had migrated to the undersurface of the membranes were counted by light microscopy, and the sum of cells in five microscopic fields was recorded for each membrane.
# [5] = test system: BTIC lines (neurospheres); experiment: Staining with biotin-labeled synthetic peptide, confocal, BTIC neurospheres; format: binding, human; details: neurospheres stained in suspension
# Protocol: (§1) Binding specificity of the 7A peptide was assessed with non-target (U87MG; NSC) and target (BTIC) cells using a biotinylated 7A peptide (red) followed by confocal imaging.
# (§2) To confirm the preferential binding of 7A to the BTICs rather than the cells used for subtraction, neurospheres and U87MG cells were stained in suspension with biotin-labeled synthetic peptide. […] Examination of the interaction of all selected peptides across a panel of BTIC lines underscored the heterogeneity within each cell population, and established a platform for correlating the ability to bind particular peptide sequences with either cell behavior or patient outcome.
# (§3) Adherent cells: 13 mm coverslips were coated with neutralized 3 mg/mL Collagen I (PureCol), allowed to dry, then plated with test cells at 1×10^4/mL, 0.5 mL volume and allowed to equilibrate 20 minutes under normal culture conditions. Coverslips were fixed for 10 minutes in 3% formaldehyde in PBS, washed, then incubated in biotinylated peptide (3 mM stock) or primary antibody at a 1:100 dilution in 2% BSA/0.02% Tween 20 in PBS for 1 hour at room temperature. After washing in PBS, secondary antibody or streptavidin-Alexa 568 was applied at a dilution of 1:250 for 1 hour before coverslips were washed and mounted with DAKO mounting media with antifade. […]
# normal stem cells (NSC) = experiment: Staining with biotin-labeled synthetic peptide, confocal, normal stem cells; format: binding; details: not tumorigenic cells
# Protocol: as §1, §2
# Suspended neurospheres: 50 μL of densely suspended neurospheres were stained as described above, except in suspension in an eppendorf tube. The stained neurospheres were mounted in a drop of DAKO mounting media under a coverslip.
# U87MG cells = experiment: Staining with biotin-labeled synthetic peptide, confocal, U87MG; format: binding, human
# Protocol: as §1, §2, §3
# [6] = test system: U251N human glioblastoma line xenografts; experiment: In vivo phage homing, U251N xenografts; set-up: species or system SCID mice; details: phage perfused, anti-phage immunohistochemistry
# Protocol: (§4) Cells were injected into the right brain hemisphere of SCID mice and allowed to establish for three months. Mice were then perfused with 7A or A1 (random control) phage for 10 minutes. […] 7A homing was not observed in mice bearing tumors generated from the U251N cell line.
# (§5) 3×10^4 U87T cells, 3×10^5 U87R cells or 5×10^4 BTICs were injected in a 3 μL volume into one brain hemisphere of a SCID mouse and allowed to grow for 4, 6 or 12 weeks respectively. The mice were anaesthetized, then treated with 150 μL of 20% (w/v) mannitol for 15 minutes before injecting 5×10^9 pfu into the brain via the carotid. After allowing the phage to circulate for 10 minutes, unbound phage were flushed out of the circulatory system with 15 mL of PBS injected into the left ventricle after the right atrium was clipped. The brains were harvested, immediately frozen on dry ice and embedded in OCT for sectioning.
# (§6) Serial sections were fixed with cold acetone, and rehydrated through an ethanol gradient. Endogenous peroxidases in the sections were inactivated with 0.075% H2O2/methanol, and nonspecific binding was blocked with 10% normal goat serum in PBS. […] Avidin-biotin peroxidase complexes were then formed using the VECTASTAIN Elite ABC kit (Vector Laboratories) and detected by addition of […] […]
# [7] = test system: implanted GBM tumor from the BT025 cell line; experiment: In vivo targeting of fluorescent peptide to implanted BT025 tumor, fluorescence microscopy of brain sections; set-up: species or system mice
# Protocol: In the studies shown in FIGS. 13A and 13B, brain tumors were implanted in mice with a patient-derived BTIC cell line BT025 identified as above by its binding to the 7A peptide. After tumor growth from the implanted cells, the tumors were removed, sectioned and stained for microscopic visualization. In the studies shown in FIGS. 14-19, a fluorescent peptide was administered intravenously, either by intracorotid injection or via tail vein into mice having an implanted GBM tumor from the BT025 cell line (FIGS. 14-17) or the U87MG cell line (FIGS. 18 and 19), and after localization of the peptide, the animal were sacrificed and their brain tumors removed for sectioning and visualization by fluorescence microscopy.
# The peptide was administered to the mouse via intracarotid injection and allowed to circulate for approximately half an hour to allow clearance of background signal before the mouse was sacrificed and the brain removed for imaging using an Olympus OV100 whole mouse imaging system. By non-magnified inspection, the large outgrowth of the tumor is obvious.
# FIGS. 14B and 14C are lower and higher magnification photomicrographs of a thin section taken from the brain in FIG. 14A after it was bisected close to the tumor implantation site and stained for human nuclear antigen (green) and total DNA (blue) to outline the positioning of the cells. The red peptide signal is visible on cells immediately adjacent to the main tumor mass as well as spread diffusely in the surrounding tissue.
# [8] = test system: BTIC 12 and BTIC 25 xenografts; experiment: In vivo phage homing, BTIC xenografts, anti-phage immunohistochemistry; set-up: species or system SCID mice; details: phage perfused 10 minutes
# Protocol: as §4, §5, §6
# [9] = test system: BTIC isolates (BTIC 12, 25, 42, 50); experiment: Biopanning of phage display library against a mixture of BTIC isolates, sequencing of subclones; details: BTIC-binding phage subclones; given as n/50 subclones screened
compound,measurement,setting,value
CC[C@H](C)[C@H](NC(=O)[C@H](CO)NC(=O)[C@H](CC(N)=O)NC(=O)[C@@H](N)[C@@H](C)O)C(=O)N[C@@H](Cc1c[nH]c2ccccc12)C(=O)N[C@@H](Cc1ccc(O)cc1)C(=O)N[C@H](C(=O)N[C@@H](C)C(=O)N1CCC[C@H]1C(=O)N[C@@H](Cc1ccc(O)cc1)C(=O)N[C@@H](CCSC)C(=O)N[C@@H](Cc1ccccc1)C(=O)O)[C@@H](C)O [H10] (H-TNSIWYTAPYMF-OH; N-terminus and C-terminus assumed),crossing of the blood brain barrier (BBB),U87R xenografts,has the ability to cross the blood brain barrier
CC[C@H](C)[C@H](NC(=O)[C@H](CO)NC(=O)[C@H](CC(N)=O)NC(=O)[C@@H](NC(=O)CNC(=O)[C@H](CCCCN)NC(=O)[C@@H](N)CCCCN)[C@@H](C)O)C(=O)N[C@@H](Cc1c[nH]c2ccccc12)C(=O)N[C@@H](Cc1ccc(O)cc1)C(=O)N[C@H](C(=O)N[C@@H](C)C(=O)N1CCC[C@H]1C(=O)N[C@@H](Cc1ccc(O)cc1)C(=O)N[C@@H](CCSC)C(=O)N[C@@H](Cc1ccccc1)C(=O)O)[C@@H](C)O [modified H10] (H-KKGTNSIWYTAPYMF-OH; N-terminus and C-terminus assumed),water solubility relative to H10 peptide,[1],substantially more water soluble
cholesterol oxidase,distribution of p75^NTR forms in density gradient fractions,p75^NTR in U87R cells,shift of higher molecular weight forms of p75^NTR into the denser gradient fractions
same,intracellular localization or gradient fractionation of transferrin or its receptor,[2],no effect
same,GM1 localisation,[3],"accumulate within the cells, particularly at the plasma membrane"
same,cell migration of U87p75 glioma cells,[4],significantly inhibited cell migration
PSPHRQRQHILR (synthetic BTIC targeting peptide) [7A],binding of peptide to BTICs,[5],high percentage of positive cells within the neurosphere
same,binding of peptide to normal stem cells,normal stem cells (NSC),predominantly negative
same,binding of peptide to U87MG cells,U87MG cells,predominantly negative
same,in vivo phage staining of U251N xenografts,[6],no staining was detected
same,distribution of fluorescent peptide signal in brain sections,"[7]; BT025 tumor, intracarotid injection",binds primarily to cells that are diffusely spread outside the main tumor mass
same,fluorescent signal in whole brain imaging of tumor,"[7]; intracarotid injection, approximately half an hour circulation, Olympus OV100","appears strongly in part of the tumor, but clearly does not detect all tumor cells present"
same,localization of peptide conjugate in human GBM tissue in vivo (summary),"[7]; intravenous administration, BT025 tumor (general statements also cover U87MG tumors)",can localize in human GBM tissue in vivo
same,in vivo phage staining of BTIC xenografts,[8],only a subset of cells within the main tumor masses of BTIC 12 and 25 showed positive staining
same,number of phage subclones containing that sequence,[9],25/50
